Drawing on ChEMBL document CHEMBL1158865, “Mueggelone, a novel inhibitor of fish development from the fresh water cyanobacterium Aphanizomenon flos-aquae” (1997), this text covers Activity for two compounds.

Test [1] is filed under the species Danio rerio. Put plainly: Inhibition of larval development in zebra fish assessed as mortality at 10 ug/mL after 24 hrs. Also noted: scale not given: the % may be the effect or the level left. The test is classed as functional.
Test [2] is filed under the species Danio rerio. The experiment in a line: Inhibition of larval development in zebra fish assessed as mortality at 10 ug/mL after 48 hrs. The test is classed as functional. Also noted: scale not given: the % may be the effect or the level left.
For test [3], the species on record is Danio rerio. The experiment in a line: Inhibition of larval development in zebra fish assessed as retardation of blood circulatory system development at 10 ug/mL after 24 hrs. The test is classed as functional, organism-based.
The species named for test [4] is Danio rerio. The experiment in a line: Inhibition of larval development in zebra fish assessed as retardation of blood circulatory system development at 10 ug/mL after 32 hrs. The test is classed as functional, organism-based.
Test [5] deals with Danio rerio. Put plainly: Inhibition of larval development in zebra fish assessed as induction of edema in heart at 10 ug/mL after 3 days. The test is classed as functional, organism-based.
The species named for test [6] is Danio rerio. Put plainly: Inhibition of larval development in zebra fish assessed as induction of thrombosis in heart at 10 ug/mL after 3 days. The test is classed as functional, organism-based.
For test [7], the species on record is Danio rerio. Put plainly: Inhibition of larval development in zebra fish at 1 ug/mL. The test is classed as functional, organism-based.
Test [8] concerns Danio rerio. The experiment in a line: Inhibition of larval development in zebra fish assessed as induction of edema in heart at 100 ug/mL after 5 days. The test is classed as functional, organism-based.
Test [9] has as its system Danio rerio. Put plainly: Inhibition of larval development in zebra fish assessed as induction of edema in heart at 100 ug/mL after 3 days. The test is classed as functional, organism-based.
Test [10] is filed under the species Danio rerio. Put plainly: Inhibition of larval development in zebra fish assessed as tail bending at 100 ug/mL after 3 days. The test is classed as functional. On the set-up: scale not given: the % may be the effect or the level left.
The species entered for test [11] is Danio rerio. The experiment in a line: Inhibition of larval development in zebra fish assessed as tail bending at 100 ug/mL after 5 days. The test is classed as functional, organism-based.
The species entered for test [12] is Danio rerio. Put plainly: Inhibition of larval development in zebra fish at 10 ug/mL. The test is classed as functional, organism-based.
The species named for test [13] is Danio rerio. The experiment in a line: Inhibition of larval development in zebra fish assessed as effect on larval mortality at 10 ug/mL. The test is classed as functional, organism-based.
For test [14], the species on record is Danio rerio. The experiment in a line: Inhibition of larval development in zebra fish assessed as effect on larval mortality at 100 ug/mL. The test is classed as functional, organism-based.

Active and inactive are the calls of the source. The calls are words filed in the database; no cut-off is given here.

As for `CC/C=C\C[C@@H]1O[C@H]1/C=C/C1CCCCCCCC(=O)O1` (relative stereo) [MUEGGELONE], the Activity in the test listed under Danio rerio [1] and in the test listed under Danio rerio [2] was 45% each time. In addition, the result in the test listed under Danio rerio [3], in the test filed under Danio rerio [4], in the test on Danio rerio [5] and in the test filed under Danio rerio [6] was Active. Further, the outcome in the test listed under Danio rerio [7] was inactive.

Turning to `C=C(C)[C@@H]1CC[C@]2(C)CC[C@]3(C)[C@H](CC[C@@H]4[C@@]5(C)CC[C@H](OC(C)=O)C(C)(C)[C@@H]5CC[C@]43C)[C@@H]12` [LUPENYL ACETATE], the result with Danio rerio [8], in the test on Danio rerio [9] and in the test listed under Danio rerio [11] was Active. Also, the Activity in the test listed under Danio rerio [10] was 30%. Also, the outcome in the test listed under Danio rerio [12], in the test listed under Danio rerio [13] and in the test listed under Danio rerio [14] was inactive.
